Data on 21 compounds can be found in patent EP0241395A2, “Sweeteners derived from n-phenylguanidinoacetic and n-phenylethananamidinacetic acids, and compositions containing such sweeteners” (UNIVERSITE CLAUDE BERNARD - LYON 1, priority 1986, dated 1987).

Each structure is given as a SMILES string.

The test system of this assay is groupe de huit goûteurs expérimentés. The experiment in a line: Sweetening power judged by a panel of eight experienced tasters against a sucrose reference solution. The format is in vivo. As to conditions: weight basis; for Pouvoir édulcorant: Table II, relative to a 2 % sucrose solution; for pouvoir édulcorant, sur une base pondérale: approximate. The source says: Le pouvoir édulcorant des composés préparés dans les exemples suivants a été évalué par un groupe de huit goûteurs expérimentés. Pour cela, les composés, en solution aqueuse à des concentrations variables, sont comparés, sur le plan gustatif, à une solution témoin de saccharose à 2 % et dans certains cas à 5 % et 10 %, c'est-à-dire à des concentrations correspondant à celles utilisées lors d'un usage courant. Le pouvoir sucrant des édulcorants de synthèse varie en effet suivant la concentration de la solution de saccharose utilisée comme référence. Le pouvoir édulcorant du composé testé par rapport au saccharose correspond alors au rapport pondéral qui existe entre le composé et le saccharose à égale intensité édulcorante, c'est-à-dire quand les saveurs sucrées de la solution du composé testé et de la solution témoin de saccharose sont considérées, par une majorité de goûteurs, avoir la même intensité édulcorante.

The mark [1] stands for this setting: by comparison with a 2 % sucrose solution.
Setting [2] is: by comparison with a 5 % sucrose solution.
Setting [3] is: by comparison with a 10 % sucrose solution.

`C[C@@H](NC(=Nc1ccc(C#N)cc1)NCC(=O)O)c1ccccc1` [Exemple 54, acide N-[N-(R)-a-méthylbenzylamino (4-cyanophénylimino)méthyl]-2-aminoéthanoïque] returned a Pouvoir édulcorant of 9000. Further, the “pouvoir édulcorant, sur une base pondérale” value under setting [1] is ~9 000 fois celui du saccharose. Besides, the pouvoir édulcorant, sur une base pondérale under setting [2] is roughly 6600 times sucrose. The “pouvoir édulcorant, sur une base pondérale” value under setting [3] is recorded as ~2 500 fois celui du saccharose.

In the case of `N#Cc1ccc(N=C(NCC(=O)O)NC2CCc3ccccc32)cc1` (stereo not drawn) [Exemple 70, acide N-[N-(1-indanyl)amino(4-cyanophénylimino)méthyl]-2-aminoéthanoïque], the Pouvoir édulcorant came to 5000. In addition, the “pouvoir édulcorant, sur une base pondérale” value under setting [1] is recorded as ~5 000 fois celui du saccharose.

For `CC(NC(=Nc1cc(Cl)cc(Cl)c1)N[C@H](C)C(=O)O)c1ccccc1` (stereo partly drawn) [Exemple 86, acide (R)-N-[N-(S)-α-méthylbenzylamino(3,5-dichlorophénylimino)méthyl]-2-aminopropanoïque], the “Pouvoir édulcorant” value is recorded as 120. The “pouvoir édulcorant, sur une base pondérale” value under setting [1] is roughly 120 fois celui du saccharose.

For `C[C@H](NC(=Nc1ccc(Cl)cc1)NCC(=O)O)c1ccccc1` [Exemple 13, acide N-[N-(S)-α-méthylbenzylamino (4-chlorophénylimino)méthyl]-2-aminoéthanoïque], the Pouvoir édulcorant was found to be 3000. Besides, under setting [1], the “pouvoir édulcorant, sur une base pondérale” value was ~3 000 fois celui du saccharose.

For the compound `CC(=O)c1ccc(N=C(NCC(=O)O)N[C@@H](C)c2ccccc2)cc1` [Exemple 15, acide N-[N-(S) -α-méthylbenzylamino (4-acétylphénylimino)méthyl]-2-aminoéthanoïque], the “Pouvoir édulcorant” value is listed as 800. For the same compound, under setting [1], the “pouvoir édulcorant, sur une base pondérale” value is recorded as roughly 800 fois celui du saccharose.

For the compound `C[C@H](NC(=Nc1cc(Cl)c(Cl)c(Cl)c1)NCC(=O)O)c1ccccc1` [Exemple 28, acide N-[N-(S)-α-méthylbenzylamino (3,4,5-trichlorophénylimino)méthyl]-2-aminoéthanoïque], the Pouvoir édulcorant turned out to be 35000. Also, the “pouvoir édulcorant, sur une base pondérale” value under setting [1] was ~35 000 fois celui du saccharose.

In the case of `N#Cc1ccc(N=C(NCC(=O)O)NC2CCCCCC2)cc1` [Exemple 45, acide N-[N-cycloheptylamino(4-cyanophénylimino)méthyl]-2-aminoéthanoïque], the Pouvoir édulcorant is 60000. Moreover, the “pouvoir édulcorant, sur une base pondérale” value under setting [1] is on record as ~60 000 fois celui du saccharose.

In the case of `CC(C)N(C)C(=Nc1ccc(C#N)cc1)NCC(=O)O` [Exemple 32, acide N-[N-méthyl-N-1-méthyléthyl-amino(4-cyanophénylimino)méthyl]-2-aminoéthanoïque], the “Pouvoir édulcorant” value was determined as 80. Besides, the “pouvoir édulcorant, sur une base pondérale” value under setting [1] is roughly 80 fois celui du saccharose.

The compound `O=C(O)CNC(=NS(=O)(=O)c1ccccc1)Nc1cccc(Cl)c1` [Exemple 79, acide N-[phénylsulfonylimino (3-chlorophénylamino)méthyl]-2-aminoéthanoique] registered a Pouvoir édulcorant of 17000. Besides, the “pouvoir édulcorant, sur une base pondérale” value under setting [1] is ~17 000 fois celui du saccharose.

As for `O=C(O)CNC(=Nc1cccc2ccccc12)Nc1cc(Cl)cc(Cl)c1` [Exemple 68, acide N-[N-1-naphtylamino (3,5-dichlorophénylimino)méthyl]-2-aminoéthanoïque], the Pouvoir édulcorant was found to be 30000. Under setting [1], the “pouvoir édulcorant, sur une base pondérale” value is reported as ~30 000 fois celui du saccharose.

In the case of `CCCCCCN=C(NCC(=O)O)Nc1ccc(C#N)cc1` [Exemple 36, acide N-[N-hexylamino(4-cyanophénylimino)méthyl]-2-aminoéthanoïque], the Pouvoir édulcorant came out at 6000. Besides, the “pouvoir édulcorant, sur une base pondérale” value under setting [1] was ~6 000 fois celui du saccharose. Under setting [2], the “pouvoir édulcorant, sur une base pondérale” value is listed as ~4 300 fois celui du saccharose. Further, under setting [3], the pouvoir édulcorant, sur une base pondérale was roughly 1400 times sucrose.

With `CC(C)CCNC(=Nc1ccc(C#N)cc1)NCC(=O)O` [Exemple 37, acide N-[N-(3-méthylbutyl)amino (4-cyanophénylimino)méthyl)-2-aminoéthanoïque], the “Pouvoir édulcorant” value is 200. Under setting [1], the “pouvoir édulcorant, sur une base pondérale” value is on record as roughly 200 fois celui du saccharose.

In turn, `C[C@H](NC(=Nc1cc(F)cc(F)c1)NCC(=O)O)c1ccccc1` [Exemple 27, acide N-[N-(S)-α-méthylbenzylamine (3,5-difluorophënylimino)méthyl]-2-aminoéthanoïque] had a Pouvoir édulcorant of 15000. The “pouvoir édulcorant, sur une base pondérale” value under setting [1] is ~15 000 fois celui du saccharose.

`N#Cc1ccc(N=C(NCC(=O)O)NCC2CCCCC2)cc1` [Exemple 59, acide N-[N-cyclohexylméthylamino(4-cyanophénylimino)méthyl]-2-aminoéthanoïque] showed a Pouvoir édulcorant of 35000. Also, under setting [1], the “pouvoir édulcorant, sur une base pondérale” value is ~35 000 fois celui du saccharose. Further, the “pouvoir édulcorant, sur une base pondérale” value under setting [2] is listed as ~28 000 fois celui du saccharose. The “pouvoir édulcorant, sur une base pondérale” value under setting [3] is ~17 000 fois celui du saccharose.

Regarding `C[C@H](N=C(NCC(=O)O)Nc1ccc(F)cc1)c1ccccc1` [Exemple 17, acide N-[N-(S)-α-méthylbenzylamine (4-fluorophénylimino)méthyl]-2-aminoéthanoïque], the Pouvoir édulcorant was 4000. Besides, the “pouvoir édulcorant, sur une base pondérale” value under setting [1] is recorded as ~4 000 fois celui du saccharose.

For the compound `N#Cc1ccc(N=C(NCC(=O)O)NN2CCOCC2)cc1` [Exemple 77, acide N-[N-morpholinoamino(4-cyano-phénylimino)méthyl]-2-aminoéthanoïque], the “Pouvoir édulcorant” value was determined as 950. Besides, the “pouvoir édulcorant, sur une base pondérale” value under setting [1] is roughly 950 fois celui du saccharose.

The compound `CN(C(=Nc1ccc(C#N)cc1)NCC(=O)O)c1ccccc1` [Exemple 74, acide N-[N-(N-méthyl-N-phénylamino) (4-cyanophénylimino)méthyl]-2-aminoéthanoïque] returned a Pouvoir édulcorant of 18000. Also, the “pouvoir édulcorant, sur une base pondérale” value under setting [1] was ~18 000 fois celui du saccharose.

Turning to `C[C@H](NC(=Nc1ccc(O)cc1)NCC(=O)O)c1ccccc1` [Exemple 20, acide N-[N-(S)-α-méthylbenzylamino (4-hydroxyphénylimino)méthyl]-2-aminoéthanoïque], the “Pouvoir édulcorant” value is recorded as 400. Under setting [1], the “pouvoir édulcorant, sur une base pondérale” value is recorded as roughly 400 fois celui du saccharose.

Regarding `CC1(C)SC(C)(C)C1NC(=Nc1ccc(C#N)cc1)NCC(=O)O` [Exemple 78, acide N-[N-(2,2,4,4-tétraméthylthiacyclobut-3-yl)amino(4-cyanophénylimino)méthyl]-2-amino-éthanoïque], the “Pouvoir édulcorant” value stood at 700. For the same compound, the “pouvoir édulcorant, sur une base pondérale” value under setting [1] is roughly 700 fois celui du saccharose.

`CCN(Cc1ccccc1)C(=Nc1ccc(C#N)cc1)NCC(=O)O` [Exemple 34, acide N-[N-éthyl-N-benzylamino (4-cyanophénylimino)méthyl]-2-aminoéthanoïque] returned a Pouvoir édulcorant of 3000. Also, the “pouvoir édulcorant, sur une base pondérale” value under setting [1] is ~3 000 fois celui du saccharose.

In turn, `N#Cc1ccc(N=C(NCC(=O)O)NC2CCCCCCC2)cc1Cl` [Exemple 49, acide N-[N-cyclooctylamino(3-chloro-4-cyanophénylimino)méthyl]-2-aminoéthanoïque] yielded a Pouvoir édulcorant of 100000. Moreover, the “pouvoir édulcorant, sur une base pondérale” value under setting [1] is recorded as ~100 000 fois celui du saccharose.
